Results reported in article PMC8582737 (International Journal of Molecular Sciences, 2021).
Values after ≈ are worked out from the molar mass of the structure shown.

Key:
[1] = cited from earlier work
[2] = Solubility of KTZ, shake-flask method; format: physicochemical; details: for solubility at 24 h: 25 °C; for Improvement of KTZ solubility by TTO: 5% TTO
Experimental: Mixtures were mechanically shaken for 24 h at 25 °C ± 0.5 °C and allowed to stand for 24 h to attain equilibrium. Then, the samples were centrifuged at 4000 rpm for 15 min, followed by filtration through a CA membrane filter (0.45 μm), diluted appropriately with methanol, and analyzed by the HPLC method at 231 nm against a standard.

CC(=O)N1CCN(c2ccc(OCC3COC(Cn4ccnc4)(c4ccc(Cl)cc4Cl)O3)cc2)CC1 (centres unmarked) [KTZ, Ketoconazole]
Solubility in water [1]: 0.0866 to 40.0 µg/mL | pH of highest stability [1]: 6–8 | solubility at 24 h ([2]; Castor oil): 93.5 ± 8.39 µg/mL (≈ 176 µM) | solubility at 24 h ([2]; Isopropyl myristate): 94 ± 3.26 µg/mL (≈ 177 µM) | solubility at 24 h ([2]; Paraffin oil): 17 ± 2.84 µg/mL (≈ 32 µM) | solubility at 24 h ([2]; Water): 9.56 ± 0.09 µg/mL (≈ 18 µM) | solubility at 24 h ([2]; castor oil with 5% TTO, oil or lipid, thermodynamic from solid, Castor oil + TTO 5%): 155 ± 7.94 µg/mL | Improvement of KTZ solubility by TTO ([2]; castor oil): about 2 fold | solubility at 24 h ([2]; isopropyl myristate with 5% TTO, oil or lipid, thermodynamic from solid, Isopropyl myristate + TTO 5%): 131 ± 5.13 µg/mL | Improvement of KTZ solubility by TTO ([2]; isopropyl myristate): about 2 fold | solubility at 24 h ([2]; paraffin oil with 5% TTO, Paraffin oil + TTO 5%): 80.1 ± 6.5 µg/mL | Improvement of KTZ solubility by TTO ([2]; paraffin oil): 5 fold | solubility at 24 h ([2]; water with 5% TTO, aqueous with cosolvent or surfactant or cyclodextrin, thermodynamic from solid, Water + TTO 5%): 35.7 ± 4.59 µg/mL | Improvement of KTZ solubility by TTO ([2]; water): ~4 fold
